From patent US20160194718A1, “Compositions and Methods for Identification, Assessment, Prevention, and Treatment of Cancer Using Histone H3K27ME3 Biomarkers and Modulators” (DANA-FARBER CANCER INSTITUTE, INC., priority 2013, published 2016)

Columns and labels:
[1] = system: wild-type B cells; experiment: Methylcellulose B cell colony forming / repassaging assay with drug; format: cell-based, mouse
Experimental: Whole bone marrow was harvested from 6-8-week-old mice, and red blood cells were lysed. Cells were plated in B cell (Methocult M3630, Stem Cell Technologies) or myeloid (Methocult M3434) methylcelluose media in gridded 35 mm dishes. Myeloid colonies were plated at 2×10^4 cells/ml per passage. B cell colonies were plated at 2×10^5 cells/ml in passage 1, and at 5×10^4 cells/ml per subsequent passage. Colonies were counted at 7 days, and colonies were then pooled and replated in the same manner.
(§1) GSK-J4 (KDM6A/UTX and KDM6B/JMJD3 inhibitor, catalog #M60063-2) (Kruidenier et al. (2012) Nature 488:404-408) and GSK-126 (EZH2 inhibitor, catalog #M60071-2) (McCabe et al. (2012) Nature 492:108-112) were purchased from Xcessbio. For methylcellulose experiments, at each passage DMSO, GSK-J4, or GSK-126 were added to cultures a final concentration of 1 μM. DS-ALLs (deidentified specimens obtained with informed consent under DFCI IRB protocol 05-001) were treated In vitro in quadruplicate with GSK-J4 at two-fold dilutions from 40 nM to 10 μM in RPMI with 20% calf serum supplemented with 10 ng/mL IL3, IL7, SCF, FLT3 ligand, and 50 μM beta-mercaptoethanol. After 3 days, viability was measured using CellTiter-Glo reagent and normalized to DMSO control (Promega).

[2] = system: H3K27me3; experiment: Western blotting of B cell colonies for H3K27me3; format: cell-based, mouse
Experimental: Western blotting was performed as described in Yoda et al. (2010) Proc. Natl. Acad. Sci. U.S.A. 107:252-257. Image J (available on the World Wide Web at imagej.nih.gov/ij) was used for quantitation of immunoblots, with band intensity normalized to total H3.
as §1

[3] = system: human primary macrophages; settings: 10 μM; cited from earlier work
[4] = system: DS-ALLs; experiment: DS-ALLs treated in vitro with GSK-J4, viability by CellTiter-Glo; format: cell-based; settings: Homo sapiens, 72 h; five DS-ALLs, 3 days, two-fold dilutions 40 nM to 10 μM, normalized to DMSO; read-out: IC50 values for GSK-J4 across a panel of DS-ALLs
Experimental: as §1

[5] = system: Ts1Rhr B cells; experiment: Methylcellulose B cell colony forming / repassaging assay with drug; format: cell-based, mouse; settings: 1 μM added at each passage
Experimental: as §1, with “Whole bone marrow was harvested from 6-8-week-old mice, and red blood cells were lysed. Cells were plated in B cell (Methocult M3630, Stem Cell Technologies) or myeloid (Methocult M3434) methylcelluose media in gridded 35 mm dishes. Myeloid colonies were plated at 2×10^4 cells/ml per passage. B cell colonies were plated at 2×10^5 cells/ml in passage 1, and at 5×10^4 cells/ml per subsequent passage. Colonies were counted at 7 days, and colonies were then pooled and replated in the same manner. GSK-J4 (KDM6A/UTX” for “GSK-J4 (KDM6A/UTX”

[6] = 1 μM, passage 2 colonies after 14 total days in culture

Structure (SMILES)	indefinite repassaging in wild-type B cells ([1]; 1 μM added at each passage)	indefinite repassaging after withdrawal of compound ([1]; wild-type cells, withdrawal at passage 5)	H3K27me3 in wild-type B cells [2, 6]	loss of H3K27me3 after withdrawal of compound ([2]; wild-type cells, one passage (7 days) after removal)	lipopolysaccharide-induced proinflammatory cytokine production [3]	IC50 [4] [nM]	indefinite repassaging [5]	colony-forming activity ([5]; vs DMSO)	H3K27me3 in Ts1Rhr B cells [2, 6]
CC[C@H](C)n1cc(C)c2c(C(=O)NCc3c(C)cc(C)[nH]c3=O)cc(-c3ccc(N4CCNCC4)nc3)cc21 [GSK-126, (S)-1-(sec-butyl)-N-((4,6-dimethyl-2-oxo-1,2-dihydropyridin-3-yl)methyl)-3-methyl-6-(6-(piperazin-1-yl)pyridin-3-yl)-1H-indole-4-carboxamide]	sufficient to confer indefinite repassaging	reversible	decreased H3K27me3	reversible					
CCOC(=O)CCNc1cc(N2CCc3ccccc3CC2)nc(-c2ccccn2)n1 [GSK-J4, ethyl 3-((6-(4,5-dihydro-1H-benzo[d]azepin-3(2H)-yl)-2-(pyridin-2-yl)pyrimidin-4-yl)amino)propanoate]					reduces	1400 to 2500	blocked indefinite repassaging	decreased colony-forming activity	increased H3K27me3
